In patent US20080254010A1, “Controlling Clostridium difficile-Associated Disease in the Gastrointestinal Tract” (priority 2007, published 2008):

System: C. difficile spores
Assay: Inhibition of germination of spores and/or inhibition of growth in Duncan and Foster growth medium
Type: cell-based, Clostridium difficile
Settings: Clostridioides difficile; 0.7 mM in growth medium; by 17 h; read-out: inhibition of spore germination

Q: How did the inhibition at 700 µM turn out when CC/C=C\C/C=C\C/C=C\CCCCCCCC(=O)O [linolenic acid] was run?
A: The inhibition at 700 µM was roughly 5%.
